Measurements from paper PMC7829355, “Antimicrobial Activity of Lipopeptide Biosurfactants Against Foodborne Pathogen and Food Spoilage Microorganisms and Their Cytotoxicity” (Frontiers in Microbiology, 2021).
≈ marks a conversion by molar mass, not a printed value. Where “and” joins values, the source holds several entries; their conditions need not be identical. Identical values can stand only once. Like-named read-outs stand apart in the source and are kept apart here.

Tests used:
[1] = test system: Listeria monocytogenes 10403S; assay: Antibacterial susceptibility, broth microdilution MIC; format: cell-based; conditions: L. monocytogenes, 24 h
Description: (§1) The antibacterial susceptibility testing was performed following the broth microdilution methodology, as described previously ([Schwalbe et al., 2007]), against both Gram-negative and Gram-positive foodborne pathogens and spoilage bacteria. The bacteria used were: Pseudomonas aeruginosa NCTC 10332, Salmonella enterica NCTC 5188, Escherichia coli K-12, Bacillus cereus MR59, Listeria monocytogenes 10403S, Carnobacterium divergens NCFB 2763, Leuconostoc mesenteroides NCIMB 08023, and Brochothrix thermosphacta NCDO 1676.
(§2) Two-fold dilutions were performed and 100 μL of each dilution was placed in each column of a flat bottomed 96-well plate. One column of the plate contained only the growth medium and served as the positive control while in another column contained 200 μL of the growth medium with the highest concentration of the lipopeptide tested (1,000 mg/L) and served as the negative control. Apart from the column that served as the negative control, the rest of the wells were inoculated with 100 μL of the bacterial culture tested. For the bacterial suspension preparation, cultures were incubated overnight in the appropriate medium (MHB or TSB). Bacterial density was adjusted to 0.5 McFarland and suspensions were subsequently diluted 1000 times using the growth test medium. The 96-well plates were then incubated at either 30or 37°C, depending on the optimal growth temperature of each microorganism, for 24 h and the OD620nm was assessed. The minimum inhibitory concentration (MIC) was defined as the lowest concentration of the antimicrobial agent tested that prevented any discernible growth after 24 h incubation.

[2] = test system: Carnobacterium divergens NCFB 2763; assay: as above; format: cell-based; conditions: C. divergens
Description: as §1, §2

[3] = test system: Leuconostoc mesenteroides NCIMB 08023; assay: as above; format: cell-based; conditions: 24 h
Description: as §1, §2

Bacillus cereus MR59 = assay: as above; format: cell-based; conditions: 24 h
Description: as §1, §2

[4] = test system: Brochothrix thermosphacta NCDO 1676; assay: as above; format: cell-based; conditions: food preservatives, 24 h
Description: as §1, §2

Escherichia coli K-12 = assay: as above; format: cell-based; conditions: E. coli K-12, broth microdilution, 24 h
Description: as §1, §2

[5] = test system: Pseudomonas aeruginosa NCTC 10332; assay: as above; format: cell-based; conditions: 24 h
Description: as §1, §2

[6] = test system: Byssochamys fulva IMI 040021; assay: Antifungal susceptibility against filamentous fungi, broth microdilution; format: cell-based, Byssochlamys fulva
Description: (§3) In this set of experiments, Candida krusei ATCC 6258 and amphotericin B were used to perform quality control tests for validation. As mentioned above, the test medium used was RPMI-1640 broth with MOPS buffer. Tests were performed in U-shaped 96-well plates in triplicates and the OD450nm was recorded after 7 days of incubation at 30°C. The fungi tested were Rhizopus stolonifer IMI 017314 and Paecilomyces variotii and Byssochamys fulva IMI 040021.

C. divergens = assay: Nisin-lipopeptide combinations, broth microdilution checkerboard panel; format: cell-based, Carnobacterium divergens; conditions: regardless of the surfactin concentrations; data not shown
Excerpt: For testing the antibacterial activity by combining nisin and lipopeptides, the broth microdilution assay described above was used, following the broth microdilution checkerboard panel ([Schwalbe et al., 2007]).

[7] = test system: Rhizopus stolonifer IMI 017314; assay: Antifungal susceptibility against filamentous fungi, broth microdilution; format: cell-based
Description: as §3

Paecilomyces variotii = assay: as above; format: cell-based
Description: as §3

Caco-2 cells [8] = assay: Cytotoxicity assay (CCK8, WST-8); conditions: estimated IC50 of this study, 24 h of contact
Vero SF cells = assay: Cytotoxicity assay (CCK8, WST-8)
Description: The Vero SF cells line is recommended by EFSA to assess the toxigenic potential of Bacillus species used in animal nutrition ([EFSA, 2014]). Cells were cultured in Dulbecco’s modified Eagle’s medium supplemented with 10% FCS, 1% glutamine, and 1% penicillin-streptomycin. After 48 h, cell culture medium was replaced by fresh medium containing the tested compounds in various concentrations.
Cytotoxicity was determined through a commercial kit from SIGMA Aldrich (Saint-Louis, United States) named Cell Counting kit 8 (CCK8). This test is based on the water-soluble tetrazolium salt (WST-8) reduction by the dehydrogenase of the living cells only inducing the production of a yellow color formazan dye which is directly proportional to the number of cells. Twenty-four hours after addition the compounds, the WST-8 was added to the medium (100 μL/mL). After 2h incubation, absorption at […] was measured in a microplate-reader (Microplates reader SpectraMax® iD3, Molecular Devices, San Jose, United States) and values were expressed as percent of control.
As explained above, since some of the lipopeptides have limited solubility in aqueous solutions, prior to their cytotoxicity testing, the effect of the DMSO at the levels used to solubilize the lipopeptides, was assessed. […]

Candida krusei ATCC 6258 = assay: Antifungal susceptibility against yeast, broth microdilution in RPMI-1640; format: cell-based; conditions: for MIC: Pichia kudriavzevii, ATCC6258, C. krusei, RPMI-1640 liquid media
Description: The antifungal susceptibility test against yeasts was performed according to the broth microdilution method, as described previously ([Urbañski et al., 2002]; [Schwalbe et al., 2007]). Candida krusei ATCC 6258 was used as the quality control organism, to verify that antifungal concentrations were prepared properly. In addition, amphotericin B, an effective antifungal antibiotic produced by Streptomyces nodosus and part of the WHO List (World Health Organization) of Essential Medicines, was used as a reference compound. The test medium used was RPMI-1640 (with glutamine, without bicarbonate and with a pH indicator) broth with [3-(N-morpholino)]-propanesulfonic acid (MOPS) buffer. All tests were performed in U-shaped 96-well plates. Three technical replicates of each assay were carried out on the same day with the same culture and chemical compound with the aforementioned experiment repeated also in triplicate on different days using different cultures (biological replicates) resulting in a total of nine replicates for each assay. The yeasts tested were Zygosaccharomyces bailli NCYC 464 and Debaryomyces hansenii NCYC 102.

Gram-positive bacteria = assay: Antibacterial broth microdilution MIC, summary over Gram-positive strains; format: cell-based; conditions: range over the Gram-positive strains; read-out: MICs for Gram-positive bacteria
[9] = test system: Salmonella enterica NCTC 5188; assay: Antibacterial susceptibility, broth microdilution MIC; format: cell-based; conditions: NCTC5188, S. enterica, 24 h
Vero cells = conditions: cited from earlier work; for IC50 cytotoxicity group, Vero cells: published IC50, MTT, ref literature review and EFSA database (Figure 4)
Caco-2 cells [10] = conditions: cited from earlier work; for IC50 cytotoxicity group, Caco cells: published IC50, MTT, ref literature review and EFSA database (Figure 4); for IC50: Caco-2 cells, ref Zhao et al.
Escherichia coli = test system: Escherichia coli; parameters: method as in Dhanarajan et al., 2016; conditions: purified surfactin homologues; ref Dhanarajan et al., 2016; cited from earlier work
Caco-2 cells [11] = test system: Caco-2 cells
R. stolonifer = test system: R. stolonifer; parameters: method as in Liu et al., 2014; conditions: ref Liu et al., 2014; cited from earlier work
[12] = nisin alone, lipopeptide alone, or lipopeptide with nisin at fixed 10 mg/L

Which MIC [1] does the source give for nisin here?
Its MIC is 6.71 µg/mL.

What about the MIC ([2]; food preservatives, broth microdilution, 24 h) of the same compound?
The MIC was 3.35 µg/mL.

What about the MIC ([2]; nisin) of the same compound?
Its MIC is 1000 µM.

And the MIC ([3]; L. mesenteroides)?
Its MIC is 1.68 µg/mL.

And the MIC (Bacillus cereus MR59; B. cereus)?
Its MIC is 6.71 µg/mL.

And the MIC ([4]; B. thermosphacta)?
The MIC was 0.10 to 0.20 µg/mL.

And the MIC (Escherichia coli K-12)?
The MIC was over 107.3 µg/mL.

What about the MIC ([5]; P. aeruginosa) of the same compound?
The MIC was over 107.3 µg/mL.

And the “Lipopeptide MIC (mg/L) B. fulva” value [6, 12]?
The value was over 125 mg/L.

What about the “MIC of nisin for C. divergens when combined with surfactin” value (C. divergens) of the same compound?
The value was 3.35 µg/mL.

What about the “Lipopeptide MIC (mg/L) R. stolonifer” value [7, 12] of the same compound?
The value was over 125 mg/L.

And the “Lipopeptide MIC (mg/L) P. variotii” value (Paecilomyces variotii; [12])?
The value was over 125 mg/L.

What about the “IC50 cytotoxicity group, Caco cells” value (Caco-2 cells [8]) of the same compound?
Its value is “group three (group three with significant cytotoxicity with IC50 lower than 10 mg/L)”.

And the “IC50 cytotoxicity group, Vero cells” value (Vero SF cells; estimated IC50 of this study, 24 h of contact)?
Its value is “group 1 (group 1 of molecules with low cytotoxicity, IC50 above 100 mg/L)”.

What about the “Lipopeptide MIC (mg/L) C. krusei” value (Candida krusei ATCC 6258; [12]) of the same compound?
The value was over 125 mg/L.

For `O=C(O)CN(CCN(CC(=O)O)CC(=O)O)CC(=O)O` [EDTA, ethylenediaminetetraacetic acid], which MIC ([1]; Listeria monocytogenes, 10403S, read-out: MIC) is on record?
Its MIC is 228 µg/mL (≈ 780 µM).

And the MIC ([2]; Carnobacterium divergens, NCFB2763, food preservatives, broth microdilution, 24 h, read-out: MIC)?
Its MIC is 55.6 µg/mL.

What about the MIC ([3]; Leuconostoc mesenteroides, NCIMB08023, L. mesenteroides, read-out: MIC) of the same compound?
Its MIC is 114 µg/mL (≈ 390 µM).

What about the MIC (Bacillus cereus MR59; Bacillus cereus, MR59, B. cereus, read-out: MIC) of the same compound?
Its MIC is 228 µg/mL (≈ 780 µM).

What about the MIC ([4]; Brochothrix thermosphacta, NCDO1676, B. thermosphacta, read-out: MIC) of the same compound?
The MIC was 114 µg/mL (≈ 390 µM).

And the MIC (Escherichia coli K-12; Escherichia coli, K12, read-out: MIC)?
Its MIC is 14600 µg/mL (≈ 50000 µM).

What about the MIC ([5]; Pseudomonas aeruginosa, NCTC10332, P. aeruginosa, read-out: MIC) of the same compound?
Its MIC is 7310 µg/mL (≈ 25000 µM).

And the MIC (Gram-positive bacteria)?
Its MIC is 190 µM to 780 µM and 55.6 µg/mL to 228 µg/mL.

What about the MIC [9] of the same compound?
The MIC was 14600 µg/mL (≈ 50000 µM).

Which results are given for `Cc1ccc(C(C)C)cc1O` [carvacol]?
IC50 cytotoxicity group, Vero cells (Vero cells): group 2 (group 2 with moderate cytotoxicity with IC50s between 10 and 100 mg/L); IC50 cytotoxicity group, Caco cells (Caco-2 cells [10]): group 2 (group 2 with moderate cytotoxicity with IC50s between 10 and 100 mg/L)

What does the source list for iturin A?
IC50 (Vero cells; Vero cells, ref EFSA Panel on Additives and Products or Substances used in Animal Feed [FEEDAP], 2017): around 16 mg/L; IC50 cytotoxicity group, Vero cells (Vero cells): group 2 (group 2 with moderate cytotoxicity with IC50s between 10 and 100 mg/L); IC50 (Caco-2 cells [10]; 2018): 42 µg/mL; IC50 (Caco-2 cells [10]; 2019): 28 µg/mL; IC50 cytotoxicity group, Caco cells (Caco-2 cells [10]): group 2 (group 2 with moderate cytotoxicity with IC50s between 10 and 100 mg/L)

Which MICs (Escherichia coli) does the source give for surfactin C15 here?
The MICs was 60 mg/L.

With fengycin [Fengycin (F)] as the compound, how does the “cytotoxicity compared to nisin (E234)” value (Vero SF cells) read?
The value was “less cytotoxic”.

With `C[C@@H]1[C@H](O)[C@@H](C)/C=C/C=C/C=C/C=C/C=C/C=C/C=C/[C@H](O[C@@H]2O[C@H](C)[C@@H](O)[C@H](N)[C@@H]2O)C[C@@H]2O[C@](O)(C[C@@H](O)C[C@@H](O)[C@H](O)CC[C@@H](O)C[C@@H](O)CC(=O)O[C@H]1C)C[C@H](O)[C@H]2C(=O)O` [Amphotericin B, amphotericin B] as the compound, how does the MIC ([6]; Paecilomyces fulvus, IMI040021, 168 h, 7 days of growth, RPMI-1640 liquid media, read-out: B. fulva MIC) read?
The MIC was 0.06 µg/mL (≈ 0.0649 µM).

And the MIC ([7]; Rhizopus stolonifer, IMI017314, 168 h, 7 days of growth, RPMI-1640 liquid media, read-out: R. stolonifer MIC)?
Its MIC is 0.5 µg/mL (≈ 0.541 µM).

What about the MIC (Paecilomyces variotii; Paecilomyces variotii, 168 h, 7 days of growth, RPMI-1640 liquid media, read-out: P. variotii MIC) of the same compound?
The MIC was 0.06 µg/mL (≈ 0.0649 µM).

And the MIC (Candida krusei ATCC 6258; 24 h growth, read-out: MIC (mg/L) 24h)?
Its MIC is 0.5 mg/L (≈ 0.541 µM).

And the MIC (Candida krusei ATCC 6258; 48 h growth, read-out: MIC (mg/L) 48h)?
Its MIC is 0.5 mg/L (≈ 0.541 µM).

With mycosubtilin as the compound, how does the “cytotoxicity compared to nisin (E234)” value (Caco-2 cells [11]) read?
The value was “three times less cytotoxic”.

Which “IC50 cytotoxicity group, Vero cells” value (Vero cells) does the source give for `C=O` [formaldehyde (E240), formaldehyde] here?
The value was “group 3 (group three with significant cytotoxicity with IC50 lower than 10 mg/L)”.

What about the “IC50 cytotoxicity group, Caco cells” value (Caco-2 cells [10]) of the same compound?
Its value is “group three (group three with significant cytotoxicity with IC50 lower than 10 mg/L)”.

Which “concentration at which growth of R. stolonifer is inhibited” value (R. stolonifer) does the source give for iturin here?
Its value is 100 mg/L.
